In ChEMBL document CHEMBL3507680, “University of Dundee, Gates Library screen for HepG2 cell viability”:

Experiment: Human HepG2 cell viability assay in 384 well format
Type: toxicity, cell-based
Parameters: dose 125 nL, time 70.5 hour; cytotoxicity at 70.5 h: concentration not given beside the values
Conditions: HepG2 cells, read-out: Inhibition

Row | SMILES | cytotoxicity at 70.5 h [%]
1 | Cc1sc(C(=O)O)cc1S(=O)(=O)Nc1c(F)cccc1-n1cccn1 | 18.5
2 | COc1ncccc1CN1C[C@@H]2C[C@@H](C(=O)NCC3CC3)N(C)[C@@H]2C1 | -12.2
3 | COc1cc(Cl)c(NC(=O)NCCn2cccc2)cc1OC | -4.58
4 | COc1cc(OC)nc(N2CCCC(c3nccn3CCN(C)C)C2)n1 (centres undefined) | 30.4
5 | CS(=O)(=O)CCNC(=O)c1cc2ccccc2nc1N1CCCC1 | -7.07
6 | CN(CC(C)(C)O)C1CCCN(Cc2noc(C3CC3)n2)C1 (centres undefined) | 41.7
7 | CC(NCC1CCN(CCO)CC1)c1ccc(C(F)(F)F)cc1 (centres undefined) | 14
8 | c1coc(CN2CCCn3c(CN4CCOCC4)nnc3C2)c1 | 1.6
9 | O=C(NC1CCCC1)c1nc2c(o1)CN(CCO)C2 | -0.956
10 | CCc1cnc(CN2CCCC2c2noc(C3CC3)n2)o1 (centres undefined) | -11.3
11 | CC(c1ccccn1)N(C)Cc1ccc(CCC(C)(C)O)cc1 (centres undefined) | -1.13
12 | O=C(O)c1ccnc(SCC(=O)c2ccccc2)c1 | 14.5
13 | CSCc1nc(CCNC(=O)C(N)c2c(C)n[nH]c2C)cs1 (centres undefined) | -3.99
14 | CC(Nc1c(F)cc(C#N)cc1F)c1cccc(S(N)(=O)=O)c1 (centres undefined) | -9.34
15 | CC(OCC1CC1)C(=O)NCc1ccc(Cn2ccnc2)cc1 (centres undefined) | -6.63
16 | CC(C)(C)CC(=O)N[C@@H]1CO[C@H](CNC(=O)c2ccncc2)[C@H]1O | -2.51
17 | Cc1cc(=O)c2cc(F)ccc2n1CC(=O)O | -3.7
18 | O=C(NCC(=O)N1CCCCC1)c1ccc(Cl)cc1I | -10.6
19 | COCCn1c(CN2CCCCO2)cnc1S(=O)(=O)CC1CCCCC1 | -2.46
20 | COCCN1C(=O)[C@H]2CC[C@@H]1CN(S(=O)(=O)c1cccc(Cl)c1)C2 | 17.8
21 | c1coc(COCc2ncn3c2CN(Cc2cccs2)CCC3)c1 | -2.67
22 | CCc1noc(C(C)N2CCC(C)CC2)n1 (centres undefined) | -3.85
23 | COc1ncccc1CN1CCn2c(C(=O)N3CCCC3)cnc2C1 | -5.02

Row | SMILES | cytotoxicity at 70.5 h [%]
24 | COCC1c2c(cnn2CC2CC2)CCN1Cc1nccs1 (centres undefined) | -4.64
25 | Cc1cnn(CC2CCCCN2Cc2noc(C3CC3)n2)c1 (centres undefined) | -6.32
26 | Cc1ccc(NC(=O)c2ccc(N3CCCCC3)nn2)c(Cl)c1 | 3.33
27 | c1ccc(CCc2n[nH]c(C3CCC3)n2)cc1 | -2.16
28 | COCCCNC(=O)CN(C)C(C)c1nc(C(C)C)no1 (centres undefined) | -4.17
29 | O=c1cc(Cn2cncn2)nc2n1CCCN(Cc1ccc(F)cc1)C2 | 0.75
30 | CC(NC(=O)c1cccnc1N(C)C)c1ccccc1Cl (centres undefined) | -9.9
31 | Cc1cc(C(=O)NCc2ccnc(N3CCN(C)CC3)c2)sc1C | 20.5
32 | Cc1nc([C@@H]2C[C@@H]3CCN(Cc4cnn(C)c4)C[C@H]3O2)sc1C | -5.41
33 | Cc1cc(C(=O)N(C)Cc2cnn(C)c2)c(NC(=O)C(C)(C)C)s1 | -12.1
34 | Cc1cnc(NC(C)Cc2cnccn2)nc1N(C)C (centres undefined) | -4.28
35 | Cc1nc(C2CCCN(C(=O)c3ccc(OCC4CC4)cc3)C2)no1 (centres undefined) | 31
36 | Cc1cccc(C)c1OCCC(=O)N1CCC(c2nncn2C)CC1 | -21.4
37 | Cc1noc(C)c1-c1nc(C2CCCN(C(=O)C(C)C)C2)ccc1CO (centres undefined) | -2.96
38 | CN1CCC/C1=N\S(=O)(=O)c1ccc(NC(=O)c2ccco2)cc1 | 11.9
39 | N#Cc1ccc(CN(CC(N)=O)C2CCCC2)c(Br)c1 | -6.26
40 | CN(C)C1COC2(CCN(Cc3nccs3)CC2)C1 (centres undefined) | -4.71
41 | CC(=O)NCCC(Cc1ccccc1)c1ccco1 (centres undefined) | -13.4
42 | CC1CN(c2ccccc2Cl)C(=O)CN1C(=O)c1c[nH]c(=O)c(Cl)c1 (centres undefined) | -0.811
43 | CC(C)c1cc(C(=O)N2CCN(c3ncc4c(n3)CCOC4)CC2)on1 | 14.5
44 | CC(O)C1CCN(Cc2nccn2CC(F)(F)F)CC1 (centres undefined) | -7.97
45 | NC(=O)c1c[nH]nc1NC(=O)c1ccc(Cl)cc1 | -3.88
46 | Cc1cc(C)n(-c2cncc(NCCNC(=O)C(C)(C)C)n2)n1 | -9.22

Row | SMILES | cytotoxicity at 70.5 h [%]
47 | Cc1ccc(CNC(=O)Cn2ncc3c2c(C)nn3C)cc1 | -0.794
48 | Cc1ccc(C(=O)N2CCN(Cc3ccc(C#N)cc3)CC2)n1C | -2.38
49 | Fc1ccc(CN2CCCC2c2cncc(-n3ccnc3)n2)cc1 (centres undefined) | -1.28
50 | Cc1ccccc1CCC1CCCN(Cc2nnc(-c3ccco3)o2)C1 (centres undefined) | -12.7
51 | O=C(Cc1csc(-c2ccco2)n1)N1CCN(CCO)CC1 | 5.35
52 | COc1cc(OC)cc(N2CCC(NCc3ccsc3)C2=O)c1 (centres undefined) | 33.1
53 | c1cc(OCc2ccc3c(c2)OCO3)ccc1CNC1CC1 | 48
54 | Cc1nn(C)c(N(C)C)c1CNCc1cccc(OCCN(C)C)c1 | 27.3
55 | CCC(C)N(Cc1ccncc1)C(=O)CCSC (centres undefined) | -10.6
56 | O=C(NC1CCCC1)C1(Cc2cc(C3CCOC3)no2)CCNCC1 (centres undefined) | -5
57 | Cc1nc(CN2CCCCC2CCc2ccc(O)cc2)no1 (centres undefined) | 6.16
58 | CCOC(CC)C(=O)NCCC(=O)N1CCN(c2ncccn2)CC1 (centres undefined) | -18.6
59 | Cc1nnc(CN2C[C@H]3CC[C@@H]2CN(C2Cc4ccccc4C2)C3)o1 | 4.16
60 | Cc1cc(C)c2nc(CNCCNS(C)(=O)=O)cc(O)c2c1 | -2.21
61 | N#Cc1ccnc(N2CCC(NCCN3CCCC3)CC2)c1 | -6.96
62 | CN(Cc1ccccn1)C(=O)CC1CCOc2ccccc21 (centres undefined) | -8.29
63 | Cc1ccc(NC(=O)NCCCc2n[nH]c(N)c2C#N)cc1 | -3.1
64 | Cn1ccc(C(=O)NCc2ccccc2CN2CCCC2)cc1=O | 16
65 | Cc1cc(C(=O)CN2CCN(c3cnccn3)CC2)c(C)n1C(C)C | -10.7
66 | Cc1ccc(C(CNCc2cccn2C)N2CCOCC2)s1 (centres undefined) | -4.6
67 | Cc1nc(CN2C(=O)CC[C@@H]3[C@H]2CCN3C(=O)NC2CC2)cs1 | 21.8
68 | COc1ccccc1CC(=O)NCc1c(C)nc2cc(=O)[nH]n2c1C | -8.5
69 | COc1ncccc1CNC(=O)NC1CCOc2ccccc21 (centres undefined) | -13.3

Row | SMILES | cytotoxicity at 70.5 h [%]
70 | O=C1C[C@H]2CC[C@@H](CN1)N2c1cc(-c2ccccc2F)nc2ccnn12 | -4
71 | CN(C(=O)c1cnc(N2CCOCC2)nc1)C1Cc2ccccc2C1 | -12.4
72 | O=C(c1nnn(-c2ccccc2F)c1-c1ccccn1)N1CCSCC1 | -0.794
73 | CNC(=O)C(C)CN(C)C(=O)Nc1cc(F)cc(Br)c1 (centres undefined) | 1.41
74 | Cn1cccc1C(=O)NC(C)(C(N)=O)c1cccc(C(F)(F)F)c1 (centres undefined) | -55.1
75 | CC(C)CN1Cc2c(C(=O)N(C)C)ncn2-c2ccccc2S1(=O)=O | -6.58
76 | O=C(c1ccc2c(c1)[nH]c(=O)n2C1CCCC1)N1CCCSCC1 | -8.62
77 | c1ccc(COc2cccc(CNC3CCc4ncnn4C3)c2)cc1 (centres undefined) | 19.6
78 | N#Cc1cccc(Cl)c1NCCCc1nc(=O)[nH][nH]1 | -9.76
79 | CNC(=O)NCC(=O)Nc1ccccc1N1CCc2ccccc21 | -3.43
80 | CC(=O)Nc1nc2c(s1)CN(CC(=O)Nc1ccc(C)c(Cl)c1)CC2 | -14.4
81 | O=C(NCC1CC1)C1CCC2(CCN(C(=O)c3ccccn3)CC2)O1 (centres undefined) | 20.3
82 | CNC(=O)c1cccnc1Oc1ccccc1 | -5.8
83 | COc1ccc(CC(=O)NC2CCc3nc(C)cn3C2)cc1 (centres undefined) | -7.41
84 | Cc1nc(-c2noc3ccc(C(=O)NCCN(C)C)cc23)co1 | -7.57
85 | COc1ccc(C(=O)Nc2cccc(SC)c2)c(OC)n1 | 26.2
86 | CS(=O)(=O)NCC1CCCN(C(=O)c2ccc3c(c2)CCC3)C1 (centres undefined) | 3.24
87 | Cc1noc(C)c1CNc1c(N2CCCC2)cccc1N1CCCC1 | -5.49
88 | Cc1cccc(CN2Cc3[nH]nc(COCC4CC4)c3C2)n1 | 3.89
89 | NC(=O)CCN(C(=O)CSc1ccc(F)cc1)c1ccc(F)cc1 | 30.2
90 | Cc1ccc(=O)n(Cc2nc(C(C)OCC(C)C)no2)n1 (centres undefined) | 3.26
91 | Cc1cnn(CC2CN(Cc3nnc(-c4ccccc4)o3)CCO2)c1 (centres undefined) | -8.48
92 | Cc1ccc(N(C)[C@@H]2CC[C@@H]3CN(C(=O)CC4CCOCC4)C[C@@H]32)nn1 | -7.61

Row | SMILES | cytotoxicity at 70.5 h [%]
93 | Cc1csc(C(=O)N2CCC(S(C)(=O)=O)CC2)c1 | -5.62
94 | CCOC(=O)N1CCN(CC(=O)Nc2nnc(C)s2)CC1 | -6.46
95 | Cc1noc(-c2cnc(NC(C)C)nc2-c2ccco2)c1C | -13.3
96 | CC(=O)Nc1cc(C2CC2)nn1-c1nc(C)c(C)c(=O)[nH]1 | 38.4
97 | CN(C)C(=O)CN1CCC2(CCCN(Cc3ccsc3)C2)C1=O (centres undefined) | -15.6
98 | Cc1c[nH]c(CN2CCCCC2CCn2cccn2)c(C)c1=O (centres undefined) | -10.2
99 | COc1ccc(N2CCC(N(C)C(=O)C(C)SC)CC2)cc1 (centres undefined) | -6.26
100 | CN(C)CC(=O)N1Cc2nc(C(=O)NCc3ccncc3)oc2C1 | -14.7
101 | CN1CCCCC1c1cncc(N2CCC(O)CC2)n1 (centres undefined) | -0.469
102 | O=C1OCCN1CCOc1nc(-c2ccccc2Cl)no1 | -4.69
103 | CN(C)C(=O)c1cnc(-c2ccc3c(c2)OCO3)s1 | 6.77
104 | FC1(F)CCN(Cc2ccncc2)CC12CCN(Cc1ccccn1)C2 (centres undefined) | 14.3
105 | CN(C)CCn1ccnc1C1CCCN(c2cc(N)ncn2)C1 (centres undefined) | 23.6
106 | Cc1noc([C@H]2C[C@H]3OCC[C@H]3N(Cc3ccc(F)cc3)C2)n1 | -8.23
107 | c1ccc(Cn2cc(CNC3CCc4ncnn4C3)cn2)cc1 (centres undefined) | -7.61
108 | Cc1cccc(N2CC3(CCN(c4nncs4)C3)CC2=O)c1 (centres undefined) | -4.91
109 | Cc1nc(CN2C(=O)CCC23CCN(Cc2cccn2C)CC3)cs1 | -9.94
110 | CN(C)c1ncccc1C(=O)N1CCc2c(ncn2C2CC2)C1 | -4.54
111 | Cn1cnc(S(=O)(=O)NCC2CCN(C(=O)Oc3ccccc3)CC2)c1 | 0.307
112 | CC(=O)c1ccc(NC(=O)C(NC(=O)Nc2ccccc2)C(C)C)cc1 (centres undefined) | -10.8
113 | COc1ccc(NC(=O)C(C)(C)C)cc1OCc1cccnc1 | 3.3
114 | CC(NCc1cnc(N2CCOCC2)s1)c1ccc(Cl)s1 (centres undefined) | -7.8
